From ChEMBL document CHEMBL5724914, “Linking interpersonal differences in gut microbiota composition and drug biotransformation activity” (2024)
Where a SMILES comes first, the peptide text is derived from it. [ ]: non-standard residue; d: D form. pGlu = O=C1CC[C@@H](C(=O)O)N1; Thz = O=C(O)[C@@H]1CSCN1

Tests used:
[1] = The drug is tested on Z-025 corresponding to rabbit gut metagenome with ENA study accession number: PRJEB37062 and ENA sample accession number: ERS12561824 for biotransformation under anaerobic condition. The drug concentrations were measured over 9 timepoints collected between 0 and 24 hours of incubation by liquid-chromatography-coupled mass spectrometry (LC–MS); settings: 2 µM
[2] = The drug is tested on Z-024 corresponding to pig gut metagenome with ENA study accession number: PRJEB37062 and ENA sample accession number: ERS12561823 for biotransformation under anaerobic condition. The drug concentrations were measured over 9 timepoints collected between 0 and 24 hours of incubation by liquid-chromatography-coupled mass spectrometry (LC–MS); settings: 2 µM
[3] = The drug is tested on Z-013 corresponding to rabbit gut metagenome with ENA study accession number: PRJEB37062 and ENA sample accession number: ERS12561813 for biotransformation under anaerobic condition. The drug concentrations were measured over 9 timepoints collected between 0 and 24 hours of incubation by liquid-chromatography-coupled mass spectrometry (LC–MS); settings: 2 µM
[4] = The drug is tested on Z-011 corresponding to mouse gut metagenome with ENA study accession number: PRJEB37062 and ENA sample accession number: ERS12561811 for biotransformation under anaerobic condition. The drug concentrations were measured over 9 timepoints collected between 0 and 24 hours of incubation by liquid-chromatography-coupled mass spectrometry (LC–MS); settings: 2 µM
[5] = The drug is tested on Z-004 corresponding to metagenome with ENA study accession number: PRJEB37062 and ENA sample accession number: ERS12561804 for biotransformation under anaerobic condition. The drug concentrations were measured over 9 timepoints collected between 0 and 24 hours of incubation by liquid-chromatography-coupled mass spectrometry (LC–MS); settings: 2 µM
[6] = The drug is tested on WLS-052 corresponding to human gut metagenome with ENA study accession number: PRJEB37062 and ENA sample accession number: ERS12561747 for biotransformation under anaerobic condition. The drug concentrations were measured over 9 timepoints collected between 0 and 24 hours of incubation by liquid-chromatography-coupled mass spectrometry (LC–MS); settings: 2 µM
[7] = human gut metagenome, 24 h, 2 µM
[8] = human gut metagenome, 24 h, 2 µM; remark: listed apart in the source
[9] = human gut metagenome, 24 h, 2 µM; remark: listed apart in the source
Note: call rule not given here.

| SMILES | Bacterial Biotransformation [1] | Bacterial Biotransformation [2] | Bacterial Biotransformation [3] | Bacterial Biotransformation [4] | Bacterial Biotransformation [5] | Bacterial Biotransformation [6] | Bacterial Biotransformation [7] | Bacterial Biotransformation [8] | Bacterial Biotransformation [9] |
| --- | --- | --- | --- | --- | --- | --- | --- | --- | --- |
| CCC(COC(=O)c1cc(OC)c(OC)c(OC)c1)(c1ccccc1)N(C)C.O=C(O)/C=C\C(=O)O (stereo not given) | Compound NOT metabolized | Compound NOT metabolized | Compound NOT metabolized | Compound NOT metabolized | Compound NOT metabolized | Compound NOT metabolized | Compound NOT metabolized | Compound NOT metabolized | Compound metabolized |
| COc1ccc(CCN(C)CCCC(C#N)(c2ccc(OC)c(OC)c2)C(C)C)cc1OC (stereo not given) | Compound NOT metabolized | Compound metabolized | Compound NOT metabolized | Compound NOT metabolized | Compound NOT metabolized | Compound NOT metabolized | Compound metabolized | Compound NOT metabolized | Compound metabolized |
| CCCCCCOC(=O)/N=C(/N)c1ccc(NCc2nc3cc(C(=O)N(CCC(=O)OCC)c4ccccn4)ccc3n2C)cc1.CS(=O)(=O)O [DABIGATRAN ETEXILATE MESYLATE] | Compound NOT metabolized | Compound NOT metabolized | Compound NOT metabolized | Compound NOT metabolized | Compound NOT metabolized |  | Compound NOT metabolized |  |  |
| O=c1[nH]c2ccccc2n1CCCN1CCC(n2c(=O)[nH]c3cc(Cl)ccc32)CC1 [DOMPERIDONE] | Compound NOT metabolized | Compound NOT metabolized | Compound NOT metabolized | Compound NOT metabolized | Compound NOT metabolized | Compound NOT metabolized | Compound NOT metabolized | Compound NOT metabolized |  |
| c1ccc([C@H]2CN3CCSC3=N2)cc1 [LEVAMISOLE] | Compound NOT metabolized |  | Compound NOT metabolized | Compound NOT metabolized | Compound NOT metabolized | Compound NOT metabolized | Compound metabolized | Compound metabolized | Compound metabolized |
| C#C[C@]1(O)CC[C@H]2[C@@H]3CCC4=CC(=O)CC[C@@H]4[C@H]3CC[C@@]21CC [LEVONORGESTREL] | Compound metabolized |  | Compound metabolized | Compound metabolized | Compound metabolized | Compound metabolized | Compound metabolized | Compound metabolized | Compound metabolized |
| O=C1CC[C@@H](C(=O)N2CSC[C@H]2C(=O)O)N1 [PIDOTIMOD] ([pGlu]-[Thz]-OH) | Compound NOT metabolized | Compound metabolized | Compound NOT metabolized | Compound NOT metabolized | Compound NOT metabolized |  | Compound NOT metabolized |  | Compound NOT metabolized |
